From patent publication US20230131025A1, “QUINOLYL PHOSPHINE OXIDE COMPOUND, AND COMPOSITION AND APPLICATION THEREOF” (Betta Pharmaceuticals Co., Ltd., priority 2020, published 2023)

How the values were obtained:
Experiment in all cases: Cell proliferation experiment (CellTiter Glo, 72 hours)
Assay type in all cases: cell-based
Ba/F3 EGFR WT = Ba/F3 EGFR WT (Homo sapiens, UniProt P00533); details: read-out: BaF3 EGFR WT IC50
Method: (§1) Experiment 2 Cell Proliferation Experiment
(§2) Suspension cells: Ba/F3 cells with stable overexpression of Δ19del/T790M/C797S mutant gene, named Ba/F3-Δ19del/T790M/C797S; Ba/F3 cells with overexpression of EGFR WT, named Ba/F3 EGFR WT.
(§3) RPMI 1640 with 10% FBS and 1% Penicillin-Streptomycin, or DMEM with 10% FBS and 1% Penicillin-Streptomycin.
(§4) a) Diluting compounds being tested (20 mM stock solutions), as an initial concentration, to 10 mM with 100% DMSO, followed by diluting compounds serially in a 3-fold gradient such that each compound is diluted into 12 concentrations (Cat #P-05525, Labcyte).
(§5) b) Diluting the above compound solutions for 100-fold with culture medium to prepare 10-fold working solution.
(§6) b) Seeding cells into 96-well cell culture plate at a density of 2000 or 3000 cells/well, with 135 μL/well.
(§7) a) Adding the compound prepared in step 2 to the cell plate at 15 μL per well, resulting in a final maximum concentration of 10000 nM or 1111 nM. The compounds is diluted serially in a 3-fold gradient such that each compound is diluted into 9 concentrations, wherein the final concentration of DMSO is 0.1%. Blank control wells are added with medium (0.1% DMSO).
(§8) b) Re-incubating the cells in an incubator for 72 hours. 5. Detection
(§9) a) Adding 50 μL of CTG reagent (CellTiter Glo kit, promega, Cat #G7573) to the 96-well cell culture plate.
(§10) b) Shaking the plate for 2 minutes and reacting at room temperature for 10 minutes.
(§11) c) Reading the luminescence signal value (Lum) using PerkinElmer reader.
(§12) The cell survival inhibition rate of each well was calculated. The data was analyzed by GraphPad Prism 6.0 software. The dose-response curve was obtained by fitting the data with a nonlinear regression equation. The IC50 of each compound was calculated as follows:
(§13) Cell survival inhibition rate (%)=(1−(Lumcompound tested−Lummedium control)/(Lumcell control−Lummedium control))×100%
(§14) Y=Min+(Max−Min)/(1+10^((Log IC50−X)*Slope));
(§15) X: logarithm of compound concentration. Y: cell survival inhibition rate.

Ba/F3-Δ19del/T790M/C797S = Ba/F3-Δ19del/T790M/C797S (Homo sapiens, UniProt P00533, T790M/C797S, cells depend on it, form not given); details: read-out: Ba/F3/EGFR Δ19del/T790M/C797S IC50
Method: as §1, §2, §3, §4, §5, §6, §7, §8, §9, §10, §11, §12, §13, §14, §15

[1] = tested on: human epidermal cancer cells A431 carrying EGFR WT; details: Homo sapiens, A-431
Method: as §1
Adherent cells: human epidermal cancer cells A431 carrying EGFR WT.
as §3, §4, §5, §6, §7, §8, §9, §10, §11, §12, §13, §14, §15

Chain of Ba/F3 EGFR WT (P00533 whole entry, change not shown): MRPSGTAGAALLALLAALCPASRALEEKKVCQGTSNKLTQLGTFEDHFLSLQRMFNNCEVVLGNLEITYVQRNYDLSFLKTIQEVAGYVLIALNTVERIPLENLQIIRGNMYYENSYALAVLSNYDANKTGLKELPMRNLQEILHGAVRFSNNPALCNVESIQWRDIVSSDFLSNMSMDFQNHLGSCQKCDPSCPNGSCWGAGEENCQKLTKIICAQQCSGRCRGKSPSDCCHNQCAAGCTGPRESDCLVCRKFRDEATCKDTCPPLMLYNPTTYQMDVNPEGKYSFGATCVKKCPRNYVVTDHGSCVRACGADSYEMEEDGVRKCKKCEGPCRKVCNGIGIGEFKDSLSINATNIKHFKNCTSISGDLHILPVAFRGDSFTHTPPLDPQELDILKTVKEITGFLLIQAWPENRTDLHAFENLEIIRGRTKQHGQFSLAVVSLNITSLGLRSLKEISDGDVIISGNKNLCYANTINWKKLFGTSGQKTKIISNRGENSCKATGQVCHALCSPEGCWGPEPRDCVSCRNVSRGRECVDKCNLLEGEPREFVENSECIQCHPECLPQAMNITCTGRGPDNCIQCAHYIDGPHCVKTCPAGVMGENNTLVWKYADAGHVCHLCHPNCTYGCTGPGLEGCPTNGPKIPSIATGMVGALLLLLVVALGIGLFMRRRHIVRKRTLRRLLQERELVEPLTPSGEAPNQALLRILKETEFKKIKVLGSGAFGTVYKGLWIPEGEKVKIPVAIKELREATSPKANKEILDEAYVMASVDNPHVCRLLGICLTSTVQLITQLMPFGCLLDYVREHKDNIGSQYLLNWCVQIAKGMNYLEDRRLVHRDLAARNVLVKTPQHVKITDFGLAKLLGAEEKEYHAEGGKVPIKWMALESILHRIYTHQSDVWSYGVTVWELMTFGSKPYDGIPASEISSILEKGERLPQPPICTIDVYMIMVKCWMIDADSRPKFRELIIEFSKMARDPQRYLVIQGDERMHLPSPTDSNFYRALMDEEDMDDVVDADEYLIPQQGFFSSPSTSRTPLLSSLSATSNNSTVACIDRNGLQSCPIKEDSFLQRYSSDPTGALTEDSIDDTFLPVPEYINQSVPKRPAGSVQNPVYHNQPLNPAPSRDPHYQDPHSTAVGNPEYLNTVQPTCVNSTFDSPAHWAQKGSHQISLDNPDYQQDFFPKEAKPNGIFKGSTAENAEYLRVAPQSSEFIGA
Chain of Ba/F3-Δ19del/T790M/C797S (P00533 with tags, fused parts or gaps DEL746-750/T790M/C797S, form open): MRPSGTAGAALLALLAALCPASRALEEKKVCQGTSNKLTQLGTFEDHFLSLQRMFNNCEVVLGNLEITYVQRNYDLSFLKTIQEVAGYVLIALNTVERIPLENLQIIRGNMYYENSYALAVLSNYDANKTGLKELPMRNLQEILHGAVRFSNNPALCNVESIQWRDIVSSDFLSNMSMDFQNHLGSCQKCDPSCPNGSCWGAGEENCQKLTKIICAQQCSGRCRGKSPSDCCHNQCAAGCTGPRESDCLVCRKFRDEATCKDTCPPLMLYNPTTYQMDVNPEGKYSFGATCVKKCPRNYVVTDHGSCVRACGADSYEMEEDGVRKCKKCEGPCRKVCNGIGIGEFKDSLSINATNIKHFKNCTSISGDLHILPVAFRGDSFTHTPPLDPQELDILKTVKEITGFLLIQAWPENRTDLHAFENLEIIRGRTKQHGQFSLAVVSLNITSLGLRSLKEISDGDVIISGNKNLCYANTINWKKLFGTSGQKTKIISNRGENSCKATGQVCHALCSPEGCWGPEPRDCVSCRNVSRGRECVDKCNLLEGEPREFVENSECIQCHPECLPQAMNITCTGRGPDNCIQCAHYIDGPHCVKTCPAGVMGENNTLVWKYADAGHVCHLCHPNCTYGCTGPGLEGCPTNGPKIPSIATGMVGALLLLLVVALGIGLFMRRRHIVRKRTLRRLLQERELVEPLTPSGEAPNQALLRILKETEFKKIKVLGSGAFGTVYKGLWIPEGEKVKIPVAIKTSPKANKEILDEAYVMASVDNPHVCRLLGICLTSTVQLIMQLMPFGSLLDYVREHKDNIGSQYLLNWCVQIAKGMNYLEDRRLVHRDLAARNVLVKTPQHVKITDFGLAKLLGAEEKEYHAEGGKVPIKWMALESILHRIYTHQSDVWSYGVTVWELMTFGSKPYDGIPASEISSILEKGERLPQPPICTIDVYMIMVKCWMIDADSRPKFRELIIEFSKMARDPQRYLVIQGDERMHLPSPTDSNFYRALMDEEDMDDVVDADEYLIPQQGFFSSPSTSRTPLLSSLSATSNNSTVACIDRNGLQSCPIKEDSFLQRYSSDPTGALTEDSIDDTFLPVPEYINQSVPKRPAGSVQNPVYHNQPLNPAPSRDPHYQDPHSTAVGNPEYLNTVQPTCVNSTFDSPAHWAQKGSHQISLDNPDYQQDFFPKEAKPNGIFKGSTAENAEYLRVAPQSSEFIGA

| GI50 (Ba/F3 EGFR WT) [nM] | GI50 (Ba/F3-Δ19del/T790M/C797S) [nM] | IC50 [1] [nM] | Structure (SMILES) |
| --- | --- | --- | --- |
| 21 | 0.5 | 176 | COc1cc(N2CCN(c3ccncc3)CC2)c(-c2cnn(C)n2)cc1Nc1ncc(Br)c(Nc2ccc3nc(C4CC4)ccc3c2P(C)(C)=O)n1 [Compound J-047, (6-((5-Bromo-2-((2-methoxy-5-(2-methyl-2H-1,2,3-triazol-4-yl)-4-(4-(pyridin-4-yl)piperazin-1-yl)phenyl)amino)pyrimidin-4-yl)amino)-2-cyclopropylquinolin-5-yl)dimethylphosphine oxide] |
| 42.2 | 1.8 | 861 | COc1cc(N2CCN(c3cccc(=O)n3C)CC2)c(-c2cnn(C)c2)cc1Nc1ncc(Br)c(Nc2ccc3nc(C4CC4)ccc3c2P(C)(C)=O)n1 [Compound J-050, 6-(4-(4-((5-Bromo-4-((2-cyclopropyl-5-(dimethylphosphoryl)quinolin-6-yl)amino)pyrimidin-2-yl)amino)-5-methoxy-2-(1-methyl-1H-pyrazol-4-yl)phenyl)piperazin-1-yl)-1-methylpyridin-2(1H)-one] |
| 46.2 | 1.4 | 157 | COc1cc(N(C)CCN(C)C)c(-c2cnn(C)c2)cc1Nc1ncc(Br)c(Nc2ccc3nc(C4CC4)ccc3c2P(C)(C)=O)n1 [Compound J-062, (6-((5-Bromo-2-((4-((2-(dimethylamino)ethyl)(methyl)amino)-2-methoxy-5-(1-methyl-1H-pyrazol-4-yl)phenyl)amino)pyrimidin-4-yl)amino)-2-cyclopropylquinolin-5-yl)dimethylphosphine oxide] |
| 77.9 | 4.4 | 259 | COc1cc(N2CCN(C3CCN(C)CC3)CC2)c(-c2cnn(C)c2)cc1Nc1ncc(Br)c(Nc2ccc3nc(C4CC4)ccc3c2P(C)(C)=O)n1 [Compound J-066, (6-((5-Bromo-2-((2-methoxy-5-(1-methyl-1H-pyrazol-4-yl)-4-(4-(1-methylpiperidine-4-yl)piperazin-1-yl)phenyl)amino)pyrimidin-4-yl)amino)-2-cyclopropylquinolin-5-yl)dimethylphosphine oxide] |
| 79 | 12.4 | – | COc1cc(N2CCN(C3CCCC3)CC2)c(-c2cnn(C)c2)cc1Nc1ncc(Br)c(Nc2ccc3nc(C4CC4)ccc3c2P(C)(C)=O)n1 [Compound J-055, (6-((5-Bromo-2-((4-(4-cyclopentylpiperazin-1-yl)-2-methoxy-5-(1-methyl-1H-pyrazol-4-yl)phenyl)amino)pyrimidin-4-yl)amino)-2-cyclopropylquinolin-5-yl)dimethylphosphine oxide] |
| 117 | 1.2 | 475 | COc1cc(N2CCC(N3CCN(C)CC3)CC2)c(-c2cnn(C)n2)cc1Nc1ncc(Br)c(Nc2ccc3nc(C4CC4)ccc3c2P(C)(C)=O)n1 [Compound J-046, (6-((5-Bromo-2-((2-methoxy-5-(2-methyl-2H-1,2,3-triazol-4-yl)-4-(4-(4-methylpiperazin-1-yl)piperidin-1-yl)phenyl)amino)pyrimidin-4-yl)amino)-2-cyclopropylquinolin-5-yl)dimethylphosphine oxide] |
| 67.6 | 10.9 | 896 | COc1cc(N2CCN(c3cc(OC)c(Nc4ncc(Br)c(Nc5ccc6nc(C7CC7)ccc6c5P(C)(C)=O)n4)cc3-c3cnn(C)c3)CC2)ccn1 [Compound J-043] |
| 123 | 2.6 | 279 | COc1cc(NCC2CCN(C)CC2)c(-c2cnn(C)c2)cc1Nc1ncc(Br)c(Nc2ccc3nc(C4CC4)ccc3c2P(C)(C)=O)n1 [Compound J-052] |
| 10.6 | 0.4 | 264 | COc1cc(N2CCC(N3CCOCC3)CC2)c(-c2cnn(C)c2)cc1Nc1ncc(Br)c(Nc2ccc3nc(C4CC4)ccc3c2P(C)(C)=O)n1 [Compound J-059, (6-((5-Bromo-2-((2-methoxy-5-(1-methyl-1H-pyrazol-4-yl)-4-(4-morpholinopiperidine-1-yl)phenyl)amino)pyrimidin-4-yl)amino)-2-cyclopropylquinolin-5-yl)dimethylphosphine oxide] |
